bioavailability, Tmax and Vd data for one compound are collected here from ChEMBL document CHEMBL3832073, “DailyMed|setid=217e52b5-3a7b-4bbe-af3c-b18de7d426c3 | ABILIFY - aripiprazole tablet|Rebel Distributors Corp”.

The term bioavailability denotes dose-corrected exposure relative to a reference, in per cent. High values mean good availability, low ones poor availability. For orientation: Tmax means the time from dosing to the highest level.

The nature of data set [1]: Evaluation of pharmacokinetic parameters for Aripiprazole following oral, intravenous or intramuscular administration of azipiprazole. Format: ADME, organism-based. To be noted: human, in vivo, dosed compound id 19, dosed compound name ARIPIPRAZOLE, tissue Plasma.
Data set [2] in a line: Evaluation of pharmacokinetic parameters for Aripiprazole following single oral administration of azipiprazole. Format: ADME, organism-based. To be noted: human, in vivo, dosed compound id 19, dosed compound name ARIPIPRAZOLE, regimen Single dose, tissue Plasma.

For `O=C1CCc2ccc(OCCCCN3CCN(c4cccc(Cl)c4Cl)CC3)cc2N1` [ARIPIPRAZOLE], the bioavailability in data set [1] (im, at 5 mg, gender male and female, route intramuscular) came to 100%. In addition, the Tmax was 1 h in data set [1] (im, gender male and female, route intramuscular); 3 to 5 h in data set [2]. For the same compound, the Vd in data set [1] (route iv, read-out: Vss) stood at 404 L.
